Measurements as given in patent US9145376B2, “Quinazolinone inhibitors of dynein” (The Rockefeller University, priority 2011, dated 2015).
pIC50: −log10 of the molar value.

How the values were obtained:
[1] = test system: Hh pathway (Gli-responsive firefly luciferase reporter in Shh-LIGHT2 cells); experiment: Shh-LIGHT2 assay for Hh pathway activity; type: cell-based; conditions: 10% Shh-conditioned medium, 24 hours, firefly/Renilla luciferase ratio
Description: Shh-N-conditioned medium was prepared as described by Chen et al., Proc. Natl. Acad. Sci. U.S.A. 99, 14071 (2002). Shh-LIGHT2 cells [J. Taipale et al., Nature 406, 1005 (2000)], an NIH-3T3-based cell line containing a stably integrated Gli-responsive firefly luciferase reporter and a constitutive thymidine kinase promoter-driven Renilla luciferase expression construct (pRLTK, Promega), were cultured in DMEM containing 10% calf serum. 100 U/mL penicillin, and 0.1 mg/mL streptomycin. The cells were seeded into 96-well plates at a density of 30,000 cells/well, and the following day they were treated with individual compounds or DMSO in DMEM containing 0.5% calf serum, 10% Shh-conditioned medium, and the antibiotics described above. After being cultured for another 24 hours, the cells were lysed and their firefly and Renilla luciferase activities were determined using, a dual luciferase reporter kit (Promega) and a microplate luminometer (Veritas). Average values representing the firefly luciferase/Renilla luciferase ratio from triplicate samples were used to construct dose response profiles for each compound. Dose-response data from three separate experiments were independently curve-fitted with a variable slope, sigmoidal dose-response algorithm using Prism software, and the resulting IC50 values were used to generate an average IC50 for each compound.

[2] = test system: primary cilia of Shh-EGFP cells; experiment: Quantitative assessment of ciliogenesis (Arl13b staining, cilia size); type: cell-based; conditions: 24 hours, read-out: Primary cilia size (percent of DMSO control at a 30 μM dose)
Description: Shh-EGFP cells [J. Hyman et al., Proc. Natl. Acad. Sci. U.S.A., (2009)], an NIH-3T3-based cell line containing a stably integrated Gli-responsive enhanced green fluorescent protein reporter, were maintained in DMEM containing 10% calf serum, 100 U/mL penicillin, and 0.1 mg/mL streptomycin. The cells were seeded into 24-well plates containing poly-D-lysine-coated 12-mm glass coverslips at a density of 30,000 cells/well and cultured for 36 hours. The cells were transferred into DMEM containing 0.5% calf serum, the antibiotics described above, and either individual compounds at a 30 μM concentration or 0.3% DMSO. After being cultured for another 24 hours, the cells were fixed in PBS containing 4% paraformaldehyde for 10 minutes at room temperature, washed 3×5 minutes with PBS, permeabilized with PBS containing 0.3% Triton X-100 for 5 minutes, and blocked overnight at 4° C. with PBS containing 5% normal goat serum, 0.1% Triton X-100, and 0.05% sodium azide. The coverslips were then incubated for 90 minutes at room temperature with blocking buffer containing rabbit polyclonal anti-Arl 13b antibody (1:3000 dilution), washed 4×5 minutes with PBS containing 0.1% Triton X-100, and incubated for 60 minutes with blocking buffer containing Alexa Fluor 488-conjugated goat polyclonal anti-rabbit IgG antibody (1:300 dilution; Invitrogen, A-11034). Following this secondary antibody incubation, nuclei were stained by incubating the cells 2×10 minutes with PBS containing 0.1% Triton X-100 and […] 4′,6-diamidino-2-phenylindole (DAPI) and washing them 2×5 minutes with PBS. The coverslips were subsequently mounted onto slides using Prolong Gold Antifade Reagent (Invitrogen) and imaged using an HC Plan Apochromat CS 20×/0.70 NA oil immersion objective on a Leica DMI6000B compound microscope equipped with a Photometric CoolSNAP HQ CCD camera and Metamorph software (Molecular Devices). Images of Arl13b staining in DMSO-treated cells were manually examined to establish a minimum threshold value for cilia staining intensity. ImageJ software was then used to define objects consisting of two or more adjacent pixels with a signal intensity equal to or greater than this threshold value, and the total object area within an individual image was used to estimate the total pixel area of primary cilia. Corresponding images of DAPI staining were processed in parallel using CellProfiler software to establish the number of nuclei per image. The average cilia size per cell within an individual image was then determined by dividing the total ciliary pixel area by the number of nuclei. Ten individual images, each containing approximately 150 cells. were used to quantify the average cilia size for each experimental condition.
Shh-EGFP cells, an NIH-3T3-based cell line containing a stably integrated Gli-responsive enhanced green fluorescent protein reporter, were maintained in DMEM containing 10% (v/v) calf serum, 100 U/mL penicillin, and 0.1 mg/mL streptomycin. The cells were seeded into 24-well plates containing poly-D-lysine-coated 12-mm glass coverslips at a density of 30,000 cells/well and cultured for 36 hours. The cells were transferred into DMEM containing 0.5% (v/v) calf serum, the antibiotics described above, and either individual dihydroquinazolinones at a 30 μM concentration or an equivalent amount of DMSO vehicle (0.3%, v/v). After being cultured for another 24 hours, the cells were fixed in PBS containing 4% (w/v) paraformaldehyde for 10 min at room temperature, washed 3×5 min with PBS, permeabilized with PBS containing 0.3% (v/v) Triton X-100 for 5 min, and blocked overnight at 4° C. with PBS containing 5% (v/v) normal goat serum, 0.1% (v/v) Triton X-100, and 0.05% (w/v) sodium azide. […]

[3] = test system: Gli3 processing in Shh-EGFP cells; experiment: Quantitative assessment of Hh ligand-dependent Gli3 processing; type: cell-based; conditions: Shh-EGFP cells stimulated with Shh-N, 16 hours
Description: Shh-EGFP cells were seeded into 12-well plate at a density of 120,000 cells/well in DMEM containing 10% calf serum. 100 U/mL penicillin, and 0.1 mg/mL streptomycin. After being cultured for 24 hours, the cells were transferred into DMEM containing 0.5% calf serum, 10% Shh-conditioned medium, the antibiotics described above, and either individual compounds or DMSO. The cells were cultured for an additional 16 hours, washed with PBS, and then lysed by incubation on ice with SDS-PAGE loading buffer composed of 8% glycerol, 20 mM Tris-HCl, pH 6.8, 2% SDS, 100 mM DTT, 1 mM PMSF, 20 mM NaF, 2 mM Na3VO4, and an EDTA-free protease inhibitor cocktail (Roche). The lysed samples were heated to 100° C. for 7 minutes, loaded onto 3-8% Criterion XT Tris-Acetate polyacrylamide gels (Bio-Rad), electrophoresed in XT Tricine buffer (Bio-Rad), and transferred onto PVDF membranes. The membranes were dehydrated with methanol and probed overnight at 4° C. with goat polyclonal anti-Gli3 antibody (0.4 μg/mL: R & D Systems, AF3690) in PBS containing 4% non-fat dry milk and 0.1% Tween-20 (immunoblot blocking buffer). The blots were then washed 4×1 minutes in PBS and incubated with horseradish peroxidase-conjugated bovine polyclonal anti-goat IgG antibody (0.04 μg/mL, Jackson ImmunoResearch, 805-035-180) in immunoblot blocking buffer for 1 hour at room temperature. The membranes were next washed 4×1 minutes in PBS and visualized using SuperSignal West Dura Extended Duration substrate (Thermo Scientific) and a ChemiDoc XRS imaging system (Bio-Rad). Band intensities of Gli3FL and Gli3R where quantified using Quantity One software (Bio-Rad), and five independent experiments were used to determine the average Gli3FL/Gli3R ratio for each compound.

basal cell carcinoma = conditions: 33 human patients; cited from earlier work
medulloblastoma = conditions: human patient; cited from earlier work

Row | SMILES | pIC50 [1] | also measured
1 | N#C/C(C(=O)c1ccc(Br)cc1)=C1\NC(=O)c2ccccc2N1 [Example 3] | 5.30 | –
2 | N#C/C(C(=O)c1ccc(I)cc1)=C1\NC(=O)c2ccccc2N1 [Example 4] | 5.35 | –
3 | Cc1ccc(C(=O)/C(C#N)=C2/NC(=O)c3ccccc3N2)cc1 [Example 5] | 4.82 | –
4 | CC(C)Cc1ccc(C(=O)/C(C#N)=C2/NC(=O)c3ccccc3N2)cc1 [Example 6] | 5.19 | –
5 | COc1ccc(C(=O)/C(C#N)=C2/NC(=O)c3ccccc3N2)cc1 [Example 8] | 4.52 | –
6 | N#C/C(C(=O)c1ccc([N+](=O)[O-])cc1)=C1\NC(=O)c2ccccc2N1 [Example 9] | 4.60 | –
7 | N#C/C(C(=O)c1ccccc1Cl)=C1\NC(=O)c2ccccc2N1 [Example 10, 3-(2-chlorophenyl)-3-oxo-2-(4-oxo-3,4-dihydroquinazolin-2(1H)-ylidene)propanenitrile] | 4.60 | activity at 30 µM [2]: 93%
8 | N#C/C(C(=O)c1ccccc1F)=C1\NC(=O)c2ccccc2N1 [Example 11] | 4.52 | –
9 | N#C/C(C(=O)c1ccccc1Br)=C1\NC(=O)c2ccccc2N1 [Example 12] | 4.82 | –
10 | N#C/C(C(=O)c1ccccc1I)=C1\NC(=O)c2ccccc2N1 [Example 13] | 4.70 | –
11 | Cc1ccccc1C(=O)/C(C#N)=C1/NC(=O)c2ccccc2N1 [Example 14] | 4.52 | –
12 | COc1ccccc1C(=O)/C(C#N)=C1/NC(=O)c2ccccc2N1 [Example 15] | < 4.52 | –
13 | N#C/C(C(=O)c1cccc(Cl)c1)=C1\NC(=O)c2ccccc2N1 [Example 17, 3-(3-chlorophenyl)-3-oxo-2-(4-oxo-3,4-dihydroquinazolin-2 (1H)-ylidene)propanenitrile] | 5.26 | activity at 30 µM [2]: 68%
14 | N#C/C(C(=O)c1ccc(Cl)c(Cl)c1)=C1\NC(=O)c2ccccc2N1 [Example 18] | 5.52 | activity at 30 µM [2]: 16%
15 | N#C/C(C(=O)c1cc(Cl)cc(Cl)c1)=C1\NC(=O)c2ccccc2N1 [Example 19] | 5.52 | activity at 30 µM [2]: 65%
16 | COc1cc(C(=O)/C(C#N)=C2/NC(=O)c3ccccc3N2)cc(OC)c1OC [Example 20] | < 4.52 | –
17 | N#C/C(C(=O)c1cccc2ccccc12)=C1\NC(=O)c2ccccc2N1 [Example 21] | 4.70 | –
18 | Cc1cccc(C(=O)/C(C#N)=C2/NC(=O)c3ccccc3N2)c1 [Example 22] | 5.30 | –
19 | O=C(/C=C1/NC(=O)c2ccccc2N1)c1ccc(Cl)cc1Cl [Example 23] | 5.36 | activity at 30 µM [2]: 70%
20 | N#C/C(=C\c1ccc(Cl)cc1Cl)C1NC(=O)c2ccccc2N1 (stereo not drawn) [Example 24] | < 4.30 | activity at 30 µM [2]: 104%
21 | N#C/C(C(=O)c1ccc(Cl)cc1Cl)=C1\NC(=O)c2c(Cl)cccc2N1 [Example 25, 2-(5-chloro-4-oxo-3,4-dihydroquinazolin-2(1H)-ylidene)-3-(2,4-dichlorophenyl)-3-oxo-propanenitrile] | 4.96 | Gli3FL/Gli3R ratio [3]: altered the Gli3FL/Gli3R ratio; Shh-N-dependent Gli3FL phosphorylation [3]: reduced; activity at 30 µM [2]: 32%
22 | Cc1cccc2c1C(=O)N/C(=C(\C#N)C(=O)c1ccc(Cl)cc1Cl)N2 [Example 26] | 5.00 | –
23 | N#C/C(C(=O)c1ccc(Cl)cc1Cl)=C1\NC(=O)c2cc(Cl)ccc2N1 [Example 27, 2-(6-chloro-4-oxo-3,4-dihydroquinazolin-2(1H)-ylidene)-3-(2,4-dichlorophenyl)-3-oxopropanenitrile] | 5.21 | Gli3FL/Gli3R ratio [3]: altered the Gli3FL/Gli3R ratio; Shh-N-dependent Gli3FL phosphorylation [3]: reduced; activity at 30 µM [2]: 11%
24 | N#C/C(C(=O)c1ccc(Cl)cc1Cl)=C1\NC(=O)c2cc(I)ccc2N1 [Example 28] | 5.22 | –
25 | N#C/C(C(=O)c1ccc(Cl)cc1Cl)=C1\NC(=O)c2cc(C#CCN)ccc2N1 [Example 29] | 4.70 | –
26 | CC(=O)NCC#Cc1ccc2c(c1)C(=O)N/C(=C(\C#N)C(=O)c1ccc(Cl)cc1Cl)N2 [Example 30] | 4.52 | –
27 | N#C/C(C(=O)c1ccc(Cl)cc1Cl)=C1\NC(=O)c2ccc(I)cc2N1 [Example 32] | 4.92 | –
28 | COc1ccc2c(c1)N/C(=C(/C#N)C(=O)c1ccc(Cl)cc1Cl)NC2=O [Example 33] | 4.82 | –
29 | CS(=O)(=O)c1ccc(C(=O)Nc2ccc(Cl)c(-c3ccccn3)c2)c(Cl)c1 [GDC-0449] | – | tumor response, basal cell carcinoma (basal cell carcinoma): clinically significant response; tumor response, medulloblastoma (medulloblastoma): regression of medulloblastoma
